This is an account of results in patent US6375926B1, “Labelled elastase inhibitors” (Amersham International PLC, priority 1996, dated 2002).

Data set [1] is described as follows: In vivo stability of iodinated HLE inhibitors (thyroid uptake). Set-up: species or system male Wistar rats. Particulars: i.v. injection. The method, then: The in vivo stability of radioiodinated HLE inhibitors was monitored by determination of the percentage uptake in the thyroid as a function of time after administration. Thus radioiodinated compounds and ^123I free iodide were injected into male Wistar rats. The percentage of injected dose distributing to the thyroid was calculated by dissection at 4 and 24 hours post injection and counting.

The target in data set [2] is T1, HLE (human leucocyte elastase) (Homo sapiens, UniProt P08246).
T1 sequence (P08246 30-267): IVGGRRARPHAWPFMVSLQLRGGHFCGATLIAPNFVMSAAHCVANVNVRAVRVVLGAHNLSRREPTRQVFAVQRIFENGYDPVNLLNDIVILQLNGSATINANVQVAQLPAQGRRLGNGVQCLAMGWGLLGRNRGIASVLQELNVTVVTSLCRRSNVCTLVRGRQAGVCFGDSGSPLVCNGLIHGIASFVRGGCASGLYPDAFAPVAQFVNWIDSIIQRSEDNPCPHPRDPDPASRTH
Nature of the data set: Measurement of HLE inhibition potency (kinact/Ki). Format: biochemical. Set-up: Potency (M/sec), kinact/Ki: unit not given here. The method, then: Inhibitor potency against HLE is described by the parameter kinact/Ki as previously reported [Knight et al., Biochem., 8160-8170, (1992)]. Lyophilised enzyme was reconstituted with TrisHCl buffer, 100 mM, 0.5M NaCl at 0.05 units/ml (approximately nanomolar concentration) in a final reaction volume of 1 ml to which was added methoxysucc-ala-ala-pro-val-pNA substrate (1 mM) and the elastase inhibitor dissolved in DMSO. The reaction was monitored by detecting the change of absorbance at 410 nm (hydrolysis of the substrate releasing p-nitroaniline) over a timescale of 25 minutes. Values of kinact/Ki were estimated according to the Knight et al method.

The subject of data set [3] is E. coli infected rats (experimental abscess). Briefly: In vivo biodistribution in rats bearing experimental abscesses, direct intravenous injection. Set-up: species or system male Wistar rats. Particulars: for uptake in the infected region compared with the ^99mTc-rbc control: ^123I-labelled, rat model of inflammation/infection; for Relative conc. In infected area / Infected/normal / Infected/blood: directly injected i.v.; for Relative conc. In infected area: % injected dose in a % body weight; for Infected/normal: ratio of % id/g infected area to contralateral thigh; for Infected/blood: ratio of %/g infected area to blood. As to the method: (§1) The model: into the right gracilis (thigh) muscle of male Wistar rats (250-325 g) were injected 1 ml/kg of an E. coli suspension containing >> 5×10^8/ml organisms.
(§2) Validation: the model was validated for use in the development of diagnostic imaging agents of infection/inflammation by the intravenous injection of ^99mTc-HMPAO ex-vivo labelled human wbc or ^67Ga-citrate when the abscesses were 24 hours old. Animals were dissected between 4 and 24 hours after injection. ^99mTc-labelled red blood cells were used as a negative control.
The animals were sacrificed at either 4 or 24 hours post injection and relevant tissues dissected.

Data set [4] concerns human whole blood (granulocytes, monocytes + lymphocytes, erythrocytes). Briefly: In vitro cell uptake in human whole blood. Type of data set: cell-based. The conditions noted are these: 37° C. for 1 hour, radiolabelled compound. As to the method:
The radioactive compound was added to 1 ml whole blood anticoagulated with ACD and incubated at 37° C. for 1 hour. The blood was diluted with HBSS and the cellular component separated by centrifugation. Distribution of activity within the cellular pellet was assessed by separation of cell fractions on Ficoll-Hypaque gradients as above.

For data set [5], the system named is isolated human white cells (granulocytes; monocytes + lymphocytes). Briefly: In vitro cell uptake in isolated human white cells. Type of data set: cell-based. Particulars: for selectivity for granulocytes over a mixture of monocytes/lymphocytes: approximately equivalent numbers of monocytes/lymphocytes and granulocytes present; for % uptake in Gran. (granulocytes), WHITE CELLS / % uptake in Mon. (monocytes + lymphocytes), WHITE CELLS: isolated human white cells, 30 minutes at 37° C., radiolabelled compound. As to the method:
Fresh blood (30-120 ml) was anticoagulated with 1.5% ACD solution and sedimented by addition of 2 ml Hespan per 10 ml blood for 90 minutes at room temperature. The leucocyte rich platelet rich plasma supernatant was removed and centrifuged at 150 g for 5 minutes, yielding a leucocyte rich pellet and platelet rich plasma (PRP). The PRP was centrifuged at 4000 g to pellet the platelets leaving a cell free plasma (CFP). The leucocyte pellet was resuspended in a 50:50 mixture of HBSS and CFP and incubated with the radioactive compound for 30 minutes at 37° C. Free radioactive material was then removed from the cells by addition of an excess of HBSS:CFP and centrifugation of the leucocytes at 150 g for 7 minutes. The supernatant and cell pellet were taken for radioactive counting for calculation of percentage cell uptake. The distribution of radioactivity within the cell pellet was assessed by separation of the cell types using Percoll density gradient centrifugation (38%, 55% and 73% Percoll in HBSS step gradients). The residual plasma and free activity was recovered from the top of the gradient, the mononuclear cells (lymphocytes and monocytes) from the interface between 38% and 55%, and the granulocytes were recovered from the interface between 55% and 73% Percoll.

In data set [6] the test system is mixed human red/white cells (granulocytes, monocytes + lymphocytes, erythrocytes). Nature of the data set: In vitro cell uptake in mixed human red/white cells. The conditions noted are these: radiolabelled compound. Type of data set: cell-based. The method, then:
The radioactive compound was also incubated with an isolated leucocyte preparation to which an erythrocyte fraction had been added back. The packed erythrocytes obtained after blood sedimentation were washed twice with HBSS and then resuspended in their original blood volume with HBSS. Leucocytes obtained from 30 ml blood were resuspended in 0.5 ml erythrocyte suspension and 0.5 ml CFP. The cell suspension was then incubated with compound as above. Analysis of the distribution of activity in the cell pellet in the presence of red blood cells was carried out using Ficoll-Hypaque discontinuous density gradients (densities 1.04, 1.077 and 1.119 g/ml Histopaque steps).

Data set [7] relates to E. coli infected rats (experimental abscess). Briefly: In vivo biodistribution of ex vivo labelled human leucocytes in E. coli infected rats. Set-up: species or system male Wistar rats. Particulars: ex vivo labelled human leucocytes injected i.v. As to the method:
as §1, §2
Screening of Ex vivo labelled human leucocytes in E. coli infected rats: A mixed population of human leucocytes was incubated with elastase inhibitor for 30 minutes at 37° C. The cells were then spun down and resuspended in a known volume of rat plasma for intravenous injection into rats bearing a 24 hour old abscess. Animals were dissected at 4 and 24 hours post injection.

Setting [8] is: measured for non-radioactive iodine-labelled compounds and unlabelled chelate conjugates, read-out: Potency (M/sec), kinact/Ki.
[9] abbreviates: as listed in Table 24 beside the radiolabelled compounds.
Where [10] appears, read: measured for non-radioactive iodine-labelled compounds and unlabelled chelate conjugates.

Structures are written as SMILES. Where two headings read alike, the source gives them in different places.

In the case of `CCC1(CC)C(=O)N(C(=O)NCc2ccc(I)cc2)C1Oc1ccc(C(=O)N2CCN(C)CC2)cc1` (racemic) [Compound 4, 4-[4-[[(4-Methyl)piperazin-1-yl]carbonyl]phenoxy]-1-[(4-iodo)benzylaminocarbonyl]-3,3-diethyl-2-azetidinone], the “% dose in Thyroid” value in data set [1] (4 hours) amounted to 0.1 % dose. In data set [1] (24 hours), the “% dose in Thyroid” value came out at 0.9 % dose. The kinact/KI in data set [2] (as listed in Table 24 beside the radiolabelled compounds, read-out: kinact/Ki (human elastase)) amounted to 32000 M⁻¹ s⁻¹. Moreover, the kinact/KI in data set [2] (setting [8]) was determined as 32000 M⁻¹ s⁻¹. In data set [3], the “uptake in the infected region compared with the ^99mTc-rbc control” value is “significantly better uptake in the infected region”. For the same molecule, in data set [3] (4 hrs post injection), the “Relative conc. In infected area” value worked out at 0.51, the Infected/normal was 1.3 and the Infected/blood was 0.62. In data set [3] (24 hrs post injection), the “Relative conc. In infected area” value is recorded as 0.12, the Infected/normal came to 1.3 and the Infected/blood was 0.51. Besides, in data set [4], the “% uptake in Eryth. (erythrocytes), WHOLE BLOOD” value stood at 6.5%; the “% uptake in Gran. (granulocytes), WHOLE BLOOD” value came out at 5.0%; the “% uptake in Mon. (monocytes + lymphocytes), WHOLE BLOOD” value was found to be 3.9%. In data set [5], the “selectivity for granulocytes over a mixture of monocytes/lymphocytes” value (“selectivity … of monocytes/lymphocytes” below) was “some degree of selectivity for granulocytes”; the “% uptake in Gran. (granulocytes), WHITE CELLS” value is reported as 25.7%; the “% uptake in Mon. (monocytes + lymphocytes), WHITE CELLS” value amounted to 2.0%. For the same molecule, in data set [6], the “% uptake in Eryth. (erythrocytes), WHITE AND RED CELLS” value is 14.2%; the “% uptake in Gran. (granulocytes), WHITE AND RED CELLS” value is recorded as 14.4%; the “% uptake in Mon. (monocytes + lymphocytes), WHITE AND RED CELLS” value was 3.4%. For the same molecule, in data set [7] (4 hrs post injection), the Infected/blood is reported as 0.61 and the Infected/normal is on record as 1.5. In data set [7] (24 hrs post injection), this molecule displayed an Infected/blood of 0.75 and an Infected/normal of 1.9.

Take `CCC1(CC)C(=O)N(C(=O)NCc2ccc(I)cc2)C1Oc1ccc(C(=O)N2CCN(C)CC2)cc1` (single isomer, unassigned) [Compound 4a]: the “% dose in Thyroid” value in data set [1] (4 hours) was 0.1 % dose. For the same molecule, the “% dose in Thyroid” value in data set [1] (24 hours) was 0.3 % dose. Moreover, the “kinact/Ki (human elastase)” value in data set [2] (setting [9]) is on record as 36000. The “Potency (M/sec), kinact/Ki” value in data set [2] (setting [10]) was 63,000. Besides, the “uptake in the infected region compared with the ^99mTc-rbc control” value in data set [3] is “significantly better uptake in the infected region”. Further, in data set [3] (4 hrs post injection), the “Relative conc. In infected area” value was determined as 0.52, the Infected/normal amounted to 1.0 and the Infected/blood was 0.62. Besides, in data set [3] (24 hrs post injection), the “Relative conc. In infected area” value turned out to be 0.28, the Infected/normal came to 1.6 and the Infected/blood turned out to be 0.53. Moreover, in data set [5], the “selectivity … of monocytes/lymphocytes” value is on record as “some degree of selectivity for granulocytes”; the “% uptake in Gran. (granulocytes), WHITE CELLS” value was 68.6%; the “% uptake in Mon. (monocytes + lymphocytes), WHITE CELLS” value came out at 14.3%. Further, in data set [6], the “% uptake in Eryth. (erythrocytes), WHITE AND RED CELLS” value is 8.4%; the “% uptake in Gran. (granulocytes), WHITE AND RED CELLS” value was 53.2%; the “% uptake in Mon. (monocytes + lymphocytes), WHITE AND RED CELLS” value is on record as 14.6%.

In the case of `CCC1(CC)C(=O)N(C(=O)NCCc2ccc(O)c(I)c2)C1S(=O)(=O)CCOC` (stereo not drawn) [Compound 16, 4-[2-Methoxyethylsulfonyl]-1-[(4-hydroxy)(3-iodo)phenylethylaminocarbonyl]-3,3-diethyl-2-azetidinone], the “% dose in Thyroid” value in data set [1] (4 hours) was determined as 0.3 % dose. Besides, the “% dose in Thyroid” value in data set [1] (24 hours) came to 2.4 % dose. Also, the kinact/KI in data set [2] (setting [8]) came out at 2700 M⁻¹ s⁻¹. In addition, in data set [4], the “% uptake in Eryth. (erythrocytes), WHOLE BLOOD” value stood at 0.2%; the “% uptake in Gran. (granulocytes), WHOLE BLOOD” value amounted to 0.2%; the “% uptake in Mon. (monocytes + lymphocytes), WHOLE BLOOD” value was 0.6%. Further, in data set [5], the “selectivity … of monocytes/lymphocytes” value is reported as “some degree of selectivity for granulocytes”; the “% uptake in Gran. (granulocytes), WHITE CELLS” value was found to be 0.55%; the “% uptake in Mon. (monocytes + lymphocytes), WHITE CELLS” value was 0.0%. In data set [6], the “% uptake in Eryth. (erythrocytes), WHITE AND RED CELLS” value worked out at 0.6%; the “% uptake in Gran. (granulocytes), WHITE AND RED CELLS” value is 0.3%; the “% uptake in Mon. (monocytes + lymphocytes), WHITE AND RED CELLS” value turned out to be 0.6%.

With `CCC[C@@H](NC(=O)N1C(=O)C(CC)(CC)[C@@H]1Oc1cccnc1)c1ccc(I)cc1` [Compound 28, 4S-(Pyridyl-3-oxy)-1-[(R-α-n-propyl)-(4-iodo)benzylaminocarbonyl]-3,3-diethyl-2-azetidinone], the “kinact/Ki (human elastase)” value in data set [2] (setting [9]) was 650000. Moreover, in data set [2] (setting [10]), the Potency (1/(M·s)), kinact/Ki was found to be 650000 M⁻¹ s⁻¹. Moreover, in data set [3] (4 hrs post injection), the “Relative conc. In infected area” value came out at 0.22, the Infected/normal was 1.3 and the Infected/blood is listed as 1.1. Also, in data set [3] (24 hrs post injection), the “Relative conc. In infected area” value turned out to be 0.12, the Infected/normal is listed as 1.2 and the Infected/blood came to 1.2. Also, in data set [5], the “selectivity … of monocytes/lymphocytes” value is given as “some degree of selectivity for granulocytes”; the “% uptake in Gran. (granulocytes), WHITE CELLS” value stood at 67.4%; the “% uptake in Mon. (monocytes + lymphocytes), WHITE CELLS” value amounted to 14.8%. In data set [6], the “% uptake in Eryth. (erythrocytes), WHITE AND RED CELLS” value is reported as 17.5%; the “% uptake in Gran. (granulocytes), WHITE AND RED CELLS” value is given as 41.9%; the “% uptake in Mon. (monocytes + lymphocytes), WHITE AND RED CELLS” value amounted to 14.9%. In addition, in data set [7] (4 hrs post injection), the Infected/blood is recorded as 0.9, the Infected/normal is 1.5 and the “Relative conc. In infected area” value stood at 0.45. In addition, in data set [7] (24 hrs post injection), the Infected/blood stood at 0.9, the Infected/normal was 1.2 and the “Relative conc. In infected area” value worked out at 0.16.

On to `[123IH]` [[^123I]-iodide, reference compound], for which the “% dose in Thyroid” value in data set [1] (4 hours) was found to be 6.8 % dose; in data set [1] (24 hours) it was 22.2 % dose.
